Key:
[1] = system: Strep. pneumoniae L44 UC41; assay: MIC, microbroth dilution; assay type: cell-based; conditions: inocula 10^4 to 10^5 CFU/ml, 18-24 h, 37° C.
Experimental: (§1) MIC for Propionibacterium aches, and Bacteroides fragilis are determined by agar dilution (inocula 10^4 /10^5 CFU/spot). MIC for other organisms are determined by microbroth dilution (inocula 10^4 to 10^5 CFU/ml). Incubation times are 18-24 h, except for Haemophilus influenzae, P. acnes, B. fragilis (48 h). All organisms are incubated at 37° C.; H. influenzae is incubated in a 5% CO2 atmosphere, anaerobes in an anaerobic gas mixture. Media used are: Iso-Sensitest broth (Oxoid) (Staphylococci, Streptococcus faecalis, Escherichia coli, Proteus vulgaris; brain heart infusion broth (Difco)+1% Supplement C (Difco) (H. influenzae); The minimal inhibitory concentrations (MIC, microgram/ml) for some microorganisms are reported below in Table VII.

Staph. haemolyticus L602 = assay: MIC, microbroth dilution; assay type: cell-based; conditions: inocula 10^4 to 10^5 CFU/ml, Iso-Sensitest broth, 18-24 h, 37° C.
Experimental: as §1

[2] = system: Staph. epidermidis L147 ATCC 12228; assay: MIC, microbroth dilution; assay type: cell-based; conditions: inocula 10^4 to 10^5 CFU/ml, Iso-Sensitest broth, 18-24 h, 37° C.
Experimental: as §1

[3] = system: Haemophilus Influenzae type B; assay: MIC, microbroth dilution; assay type: cell-based; conditions: brain heart infusion broth +1% Supplement C, 48 h, 37° C., 5% CO2
Experimental: as §1

Staph. aureus L165 Tour = assay: MIC, microbroth dilution; assay type: cell-based; conditions: inocula 10^4 to 10^5 CFU/ml, Iso-Sensitest broth, 18-24 h, 37° C.
Experimental: as §1

Esch. coli L47 SKF 12140 = assay: MIC, microbroth dilution; assay type: cell-based, Escherichia coli; conditions: inocula 10^4 to 10^5 CFU/ml, Iso-Sensitest broth, 18-24 h, 37° C.
Experimental: as §1

[4] = system: Bact. fragilis L1010 ATCC 23745; assay: MIC, agar dilution; assay type: cell-based, Bacteroides fragilis; conditions: inocula 10^4 /10^5 CFU/spot, 48 h, 37° C., anaerobic gas mixture
Experimental: as §1

Prot. vulgaris ATCC 881 = assay: MIC, microbroth dilution; assay type: cell-based, Proteus vulgaris; conditions: inocula 10^4 to 10^5 CFU/ml, Iso-Sensitest broth, 18-24 h, 37° C.
Experimental: as §1

[5] = system: Prop. acnes L1014 ATCC 6919; assay: MIC, agar dilution; assay type: cell-based, P. acnes; conditions: inocula 10^4 /10^5 CFU/spot, 48 h, 37° C., anaerobic gas mixture
Experimental: as §1

[6] = system: Strep. faecalis L149 ATCC 7080; assay: MIC, microbroth dilution; assay type: cell-based, Streptococcus faecalis; conditions: inocula 10^4 to 10^5 CFU/ml, Iso-Sensitest broth, 18-24 h, 37° C.
Experimental: as §1

Structure (SMILES) | MIC [1] [microgram/ml] | MIC [2] [microgram/ml] | MIC [3] [microgram/ml] | MIC (Staph. aureus L165 Tour) [microgram/ml] | MIC (Esch. coli L47 SKF 12140) [microgram/ml] | MIC [4] [microgram/ml] | MIC (Prot. vulgaris ATCC 881) [microgram/ml] | MIC [5] [microgram/ml] | MIC [6] [microgram/ml] | MIC (Staph. haemolyticus L602) [microgram/ml]
CNC(=O)CC1NC(=O)c2nc(sc2COC)C(C(C)C)NC(=O)c2csc(n2)-c2ccc(-c3nc(C(=O)NCC(=O)O)cs3)nc2-c2csc(n2)-c2csc(n2)C(C(O)c2ccccc2)NC(=O)CNC(=O)c2nc1sc2C (stereo not shown) [Compound 1] | 8 | 1 | 8 | 0.5 | > 128 | 8 | > 128 | < 0.13 | 0.25 | 4
CNC(=O)CC1NC(=O)c2nc(sc2COC)C(C(C)C)NC(=O)c2csc(n2)-c2ccc(-c3nc(C(=O)NC(CCCN)C(=O)O)cs3)nc2-c2csc(n2)-c2csc(n2)C(C(O)c2ccccc2)NC(=O)CNC(=O)c2nc1sc2C.O=C(O)C(F)(F)F (stereo not shown) [Compound 2] | > 128 | 0.25 | > 128 | 0.13 | > 128 | > 128 | > 128 | 0.06 | 0.06 | 16
CNC(=O)CC1NC(=O)c2nc(sc2COC)C(C(C)C)NC(=O)c2csc(n2)-c2ccc(-c3nc(C(=O)NC(CC(C)C)C(=O)O)cs3)nc2-c2csc(n2)-c2csc(n2)C(C(O)c2ccccc2)NC(=O)CNC(=O)c2nc1sc2C (stereo not shown) [Compound 6] | 2 | 1 | 32 | < 0.13 | > 128 | > 128 | > 128 | < 0.13 | < 0.13 | 1
CNC(=O)CC1NC(=O)c2nc(sc2COC)C(C(C)C)NC(=O)c2csc(n2)-c2ccc(-c3nc(C(=O)NC(Cc4ccccc4)C(=O)O)cs3)nc2-c2csc(n2)-c2csc(n2)C(C(O)c2ccccc2)NC(=O)CNC(=O)c2nc1sc2C (stereo not shown) [Compound 7] | 4 | 0.5 | 128 | 0.25 | > 128 | > 128 | > 128 | < 0.13 | > 0.13 | 4
CNC(=O)CC1NC(=O)c2nc(sc2COC)C(C(C)C)NC(=O)c2csc(n2)-c2ccc(-c3nc(C(=O)NC(CCSC)C(=O)O)cs3)nc2-c2csc(n2)-c2csc(n2)C(C(O)c2ccccc2)NC(=O)CNC(=O)c2nc1sc2C (stereo not shown) [Compound 8] | 4 | 2 | 64 | 0.25 | > 128 | 32 | > 128 | < 0.13 | 0.25 | 2
CNC(=O)CC1NC(=O)c2nc(sc2COC)C(C(C)C)NC(=O)c2csc(n2)-c2ccc(-c3nc(C(=O)NCC(=O)N4CCCC4C(N)=O)cs3)nc2-c2csc(n2)-c2csc(n2)C(C(O)c2ccccc2)NC(=O)CNC(=O)c2nc1sc2C (stereo not shown) [Compound 14] | > 128 | 0.13 | > 128 | 0.06 | > 128 | > 128 | > 128 | 0.03 | 0.06 | 0.25
CNC(=O)CC1NC(=O)c2nc(sc2COC)C(C(C)C)NC(=O)c2csc(n2)-c2ccc(-c3nc(C(=O)NCCCC(=O)O)cs3)nc2-c2csc(n2)-c2csc(n2)C(C(O)c2ccccc2)NC(=O)CNC(=O)c2nc1sc2C (stereo not shown) [Compound 18] | 1 | 0.25 | 2 | 0.25 | > 128 | 2 | > 128 | 0.016 | 0.13 | 1

Continued, in another order:

MIC [1] [microgram/ml] | MIC [2] [microgram/ml] | MIC [3] [microgram/ml] | MIC (Staph. aureus L165 Tour) [microgram/ml] | MIC (Esch. coli L47 SKF 12140) [microgram/ml] | MIC [4] [microgram/ml] | MIC (Prot. vulgaris ATCC 881) [microgram/ml] | MIC [5] [microgram/ml] | MIC [6] [microgram/ml] | Structure (SMILES) | MIC (Staph. haemolyticus L602) [microgram/ml]
0.25 | 0.06 | 2 | 0.06 | > 128 | 4 | > 128 | 0.008 | 0.06 | CNC(=O)CC1NC(=O)c2nc(sc2COC)C(C(C)C)NC(=O)c2csc(n2)-c2ccc(-c3nc(C(=O)NCCCCCC(=O)O)cs3)nc2-c2csc(n2)-c2csc(n2)C(C(O)c2ccccc2)NC(=O)CNC(=O)c2nc1sc2C (stereo not shown) [Compound 19] | 0.25
2 | 0.25 | > 128 | 0.25 | > 128 | > 128 | > 128 | 0.03 | < 0.13 | CNC(=O)CC1NC(=O)c2nc(sc2COC)C(C(C)C)NC(=O)c2csc(n2)-c2ccc(-c3nc(C(=O)NCCCCCCCC(=O)O)cs3)nc2-c2csc(n2)-c2csc(n2)C(C(O)c2ccccc2)NC(=O)CNC(=O)c2nc1sc2C (stereo not shown) [Compound 20] | 0.25
1 | 0.5 | > 128 | 0.5 | > 128 | > 128 | > 128 | 0.13 | 0.25 | CNC(=O)CC1NC(=O)c2nc(sc2COC)C(C(C)C)NC(=O)c2csc(n2)-c2ccc(-c3nc(C(=O)NCCN(C)C)cs3)nc2-c2csc(n2)-c2csc(n2)C(C(O)c2ccccc2)NC(=O)CNC(=O)c2nc1sc2C (stereo not shown) [Compound 32] | 0.5
> 128 | 0.13 | > 128 | 0.13 | > 128 | > 128 | > 128 | 0.004 | 0.06 | CNC(=O)CC1NC(=O)c2nc(sc2COC)C(C(C)C)NC(=O)c2csc(n2)-c2ccc(-c3nc(C(N)=O)cs3)nc2-c2csc(n2)-c2csc(n2)C(C(O)c2ccccc2)NC(=O)CNC(=O)c2nc1sc2C (stereo not shown) [Compound 35] | 0.5
4 | 0.13 | > 128 | 0.13 | > 128 | > 128 | > 128 | 0.06 | 0.13 | CNC(=O)CC1NC(=O)c2nc(sc2COC)C(C(C)C)NC(=O)c2csc(n2)-c2ccc(-c3nc(C(=O)NCCCN)cs3)nc2-c2csc(n2)-c2csc(n2)C(C(O)c2ccccc2)NC(=O)CNC(=O)c2nc1sc2C.O=C(O)C(F)(F)F (stereo not shown) [Compound 36] | 0.13
> 128 | 0.06 | > 128 | 0.03 | > 128 | > 128 | > 128 | 0.004 | 0.06 | CNC(=O)CC1NC(=O)c2nc(sc2COC)C(C(C)C)NC(=O)c2csc(n2)-c2ccc(-c3nc(C(=O)NCC=O)cs3)nc2-c2csc(n2)-c2csc(n2)C(C(O)c2ccccc2)NC(=O)CNC(=O)c2nc1sc2C (stereo not shown) [Compound 37] | 0.13
1 | 0.25 | 1 | 0.25 | > 128 | 4 | > 128 |  | ≤ 0.13 | CNC(=O)CC1NC(=O)c2nc(sc2COC)C(C(C)C)NC(=O)c2csc(n2)-c2ccc(-c3nc(C(=O)NCCCC=CC(=O)O)cs3)nc2-c2csc(n2)-c2csc(n2)C(C(O)c2ccccc2)NC(=O)CNC(=O)c2nc1sc2C (stereo not shown) [Compound 40] | 1

Source: patent US5599791A, “Amides of antibiotic GE 2270 factors” (Gruppo Lepetit SPA, priority 1991, dated 1997)
